pIC50: −log10 of the molar value.
Experiments:
[1] = tested on: HepG2; experiment: Antiproliferative activity against human HepG2 cells after 48 hrs by MTT assay; format: functional, cell-based
[2] = tested on: A549; experiment: Induction of apoptosis in human A549 assessed as upregulation of p53 mRNA expression level at 0.067 mM by RT-PCR analysis relative to control; format: functional
[3] = tested on: A549; experiment: Cell cycle arrest in human A549 cells assessed as accumulation at sub G1 phase at 0.067 mM after 48 hrs by propidium iodide staining-based flow cytometric analysis (reference value: 0.77%); format: functional
[4] = tested on: A549; experiment: Antiproliferative activity against human A549 cells after 48 hrs by MTT assay; format: functional, cell-based
[5] = tested on: WI-38; experiment: Antiproliferative activity against human WI38 cells after 48 hrs by MTT assay; format: cell-based; details: WI-38, 48 h
[6] = tested on: A549; experiment: Cell cycle arrest in human A549 cells assessed as accumulation at G2/M phase at 0.067 mM after 48 hrs by propidium iodide staining-based flow cytometric analysis (reference value: 5.34%); format: functional
[7] = tested on: A549; experiment: Cell cycle arrest in human A549 cells assessed as accumulation at G0/G1 phase at 0.067 mM after 48 hrs by propidium iodide staining-based flow cytometric analysis (reference value: 66.85%); format: functional
[8] = tested on: A549; experiment: Cell cycle arrest in human A549 cells assessed as accumulation at S phase at 0.067 mM after 48 hrs by propidium iodide staining-based flow cytometric analysis (reference value: 27.04%); format: functional
[9] = tested on: A549; experiment: Induction of apoptosis in human A549 assessed as early apoptotic cells at 0.067 mM after 48 hrs by Annexin-V FITC/propidium iodide staining-based flow cytometric analysis (reference value: 0.36%); format: functional
[10] = tested on: A549; experiment: Induction of apoptosis in human A549 assessed as inhibition of Bcl2 mRNA expression level at 0.067 mM by RT-PCR analysis relative to control; format: functional
[11] = tested on: A549; experiment: Induction of apoptosis in human A549 assessed as late apoptotic cells at 0.067 mM after 48 hrs by Annexin-V FITC/propidium iodide staining-based flow cytometric analysis (reference value: 0.21%); format: functional
[12] = tested on: A549; experiment: Induction of apoptosis in human A549 assessed as upregulation of Bax mRNA expression level at 0.067 mM by RT-PCR analysis relative to control; format: functional
[13] = tested on: A549; experiment: Induction of apoptosis in human A549 assessed as viable cells at 0.067 mM after 48 hrs by Annexin-V FITC/propidium iodide staining-based flow cytometric analysis (reference value: 97.42%); format: functional; details: A549, 48 h, read-out: Activity
[14] = tested on: A549; experiment: Induction of apoptosis in human A549 assessed as necrotic cells at 0.067 mM after 48 hrs by Annexin-V FITC/propidium iodide staining-based flow cytometric analysis (reference value: 0.2%); format: functional
[15] = Antiproliferative activity against human HFB4 cells after 48 hrs by MTT assay; format: cell-based
[16] = tested on: A549; experiment: Induction of apoptosis in human A549 assessed as upregulation of caspase-3 mRNA expression level at 0.067 mM by RT-PCR analysis relative to control; format: functional
[17] = tested on: HCT-116; experiment: Antiproliferative activity against human HCT116 cells after 48 hrs by MTT assay; format: functional, cell-based

O=c1oc2ccc3ccccc3c2cc1-c1n[nH]c(=O)c2nn(-c3ccccc3)cc12
Activity [1]: Dose-dependent effect | pIC50 ([1]; HepG2, 48 h): 3.94 | fold change (FC) [2]: 5.08 | Activity [3]: 11.42% | Activity [4]: Dose-dependent effect | pIC50 ([4]; A549, 48 h): 4.17 | pIC50 [5]: 3.66 | Activity [6]: 15.11% | Activity [7]: 56.88% | Activity [8]: 16.59% | Activity [9]: 4.69% | fold change (FC) [10]: 0.22 | Activity [11]: 5.37% | fold change (FC) [12]: 7.28 | viability at 67 µM [13]: 86.9% | Activity [14]: 1.36% | pIC50 [15]: 3.55 | fold change (FC) [16]: 7.19 | Activity [17]: Dose-dependent effect | pIC50 ([17]; HCT-116, 48 h): 3.89

Source: ChEMBL document CHEMBL4219054, “Induction of apoptosis by pyrazolo[3,4-d]pyridazine derivative in lung cancer cells via disruption of Bcl-2/Bax expression balance” (Bioorg Med Chem, 2018)
